Values after ≈ are worked out from the molar mass of the structure shown. Read-outs that look alike come from different tables or passages of the source.
System: N. gonorrhoeae
Experiment: MIC determination, Etest
Type: cell-based, Neisseria gonorrhoeae
Conditions: for MIC: Neisseria gonorrhoeae, comparator antibiotics, read-out: Minimum inhibitory concentration
Description: The 2024 WHO N. gonorrhoeae reference strains were used for quality control. Only whole MIC doubling dilutions are reported. Clinical breakpoints or the epidemiological cutoff (ECOFF, to indicate azithromycin resistance) from EUCAST (v14.0, https://www.eucast.org/clinical_breakpoints) were used to classify isolates as antimicrobial susceptible or resistant. […] Two times the standard inoculum defined by CLSI was used to establish consistent growth in untreated control samples for some strains. In vitro time-kill assays were performed according to CLSI guidelines[65] using Columbia Broth (BD Difco) supplemented with 1% IsoVitaleX Enrichment (BD). Viable bacterial counts were generated by plating 10-fold serially diluted samples on GC agar plates containing 1% IsoVitaleX Enrichment (BD).

MIC (clinical N. gonorrhoeae isolate 50, Sweden 2023): 16 µg/mL (≈ 48.1 µM)
MIC (clinical N. gonorrhoeae isolate 51, Sweden 2023): 8 µg/mL (≈ 24.1 µM)
MIC (clinical N. gonorrhoeae isolate 52, Sweden 2023): 16 µg/mL (≈ 48.1 µM)
MIC (clinical N. gonorrhoeae isolate 53, Sweden 2023): 8 µg/mL (≈ 24.1 µM)
MIC (clinical N. gonorrhoeae isolate 54, Sweden 2023): 16 µg/mL (≈ 48.1 µM)
MIC (clinical N. gonorrhoeae isolate 55, Sweden 2023): 16 µg/mL (≈ 48.1 µM)
MIC (clinical N. gonorrhoeae isolate 56, Sweden 2023): 8 µg/mL (≈ 24.1 µM)
MIC (clinical N. gonorrhoeae isolate 57, Sweden 2023): 8 µg/mL (≈ 24.1 µM)
MIC (clinical N. gonorrhoeae isolate 58, Sweden 2023): 8 µg/mL (≈ 24.1 µM)
MIC (clinical N. gonorrhoeae isolate 59, Sweden 2023): 8 µg/mL (≈ 24.1 µM)
MIC (clinical N. gonorrhoeae isolate 60, Sweden 2023): 16 µg/mL (≈ 48.1 µM)
MIC (clinical N. gonorrhoeae isolate 61, Sweden 2023): 8 µg/mL (≈ 24.1 µM)
MIC (clinical N. gonorrhoeae isolate 62, Sweden 2023): 8 µg/mL (≈ 24.1 µM)
MIC (clinical N. gonorrhoeae isolate 63, Sweden 2023): 16 µg/mL (≈ 48.1 µM)
MIC (clinical N. gonorrhoeae isolate 64, Sweden 2023): 16 µg/mL (≈ 48.1 µM)
MIC (clinical N. gonorrhoeae isolate 65, Sweden 2023): 16 µg/mL (≈ 48.1 µM)
MIC (clinical N. gonorrhoeae isolate 66, Sweden 2023): 16 µg/mL (≈ 48.1 µM)
MIC (clinical N. gonorrhoeae isolate 67, Sweden 2023): 16 µg/mL (≈ 48.1 µM)
MIC (clinical N. gonorrhoeae isolate 68, Sweden 2023): 16 µg/mL (≈ 48.1 µM)
MIC (clinical N. gonorrhoeae isolate 69, Sweden 2023): 16 µg/mL (≈ 48.1 µM)
MIC (clinical N. gonorrhoeae isolate 70, Sweden 2023): 8 µg/mL (≈ 24.1 µM)
MIC (clinical N. gonorrhoeae isolate 71, Sweden 2023): 16 µg/mL (≈ 48.1 µM)
MIC (clinical N. gonorrhoeae isolate 72, Sweden 2023): 8 µg/mL (≈ 24.1 µM)
MIC (clinical N. gonorrhoeae isolate 73, Sweden 2023): 16 µg/mL (≈ 48.1 µM)
MIC (clinical N. gonorrhoeae isolate 74, Sweden 2023): 16 µg/mL (≈ 48.1 µM)
MIC (clinical N. gonorrhoeae isolate 75, Sweden 2023): 8 µg/mL (≈ 24.1 µM)
MIC (clinical N. gonorrhoeae isolate 76, Sweden 2023): 8 µg/mL (≈ 24.1 µM)
MIC (clinical N. gonorrhoeae isolate 77, Sweden 2023): 16 µg/mL (≈ 48.1 µM)
MIC (clinical N. gonorrhoeae isolate 78, Sweden 2023): 16 µg/mL (≈ 48.1 µM)
MIC (clinical N. gonorrhoeae isolate 79, Sweden 2023): 8 µg/mL (≈ 24.1 µM)
MIC (clinical N. gonorrhoeae isolate 80, Sweden 2023): 16 µg/mL (≈ 48.1 µM)
MIC (clinical N. gonorrhoeae isolate 81, Sweden 2023): 16 µg/mL (≈ 48.1 µM)
MIC (clinical N. gonorrhoeae isolate 82, Sweden 2023): 16 µg/mL (≈ 48.1 µM)
MIC (clinical N. gonorrhoeae isolate 83, Sweden 2023): 8 µg/mL (≈ 24.1 µM)
MIC (clinical N. gonorrhoeae isolate 84, Sweden 2023): 16 µg/mL (≈ 48.1 µM)
MIC (clinical N. gonorrhoeae isolate 85, Sweden 2023): 8 µg/mL (≈ 24.1 µM)
MIC (clinical N. gonorrhoeae isolate 86, Sweden 2023): 8 µg/mL (≈ 24.1 µM)
MIC (clinical N. gonorrhoeae isolate 87, Sweden 2023): 8 µg/mL (≈ 24.1 µM)
MIC (clinical N. gonorrhoeae isolate 88, Sweden 2023): 16 µg/mL (≈ 48.1 µM)
MIC (clinical N. gonorrhoeae isolate 89, Sweden 2023): 16 µg/mL (≈ 48.1 µM)
MIC (clinical N. gonorrhoeae isolate 90, Sweden 2023): 16 µg/mL (≈ 48.1 µM)
MIC (clinical N. gonorrhoeae isolate 91, Sweden 2023): 4 µg/mL (≈ 12 µM)
MIC (clinical N. gonorrhoeae isolate 92, Sweden 2023): 8 µg/mL (≈ 24.1 µM)
MIC (clinical N. gonorrhoeae isolate 93, Sweden 2023): 16 µg/mL (≈ 48.1 µM)
MIC (clinical N. gonorrhoeae isolate 94, Sweden 2023): 8 µg/mL (≈ 24.1 µM)
MIC (clinical N. gonorrhoeae isolate 95, Sweden 2023): 16 µg/mL (≈ 48.1 µM)
MIC (clinical N. gonorrhoeae isolate 96, Sweden 2023): 8 µg/mL (≈ 24.1 µM)
MIC (clinical N. gonorrhoeae isolate 97, Sweden 2023): 16 µg/mL (≈ 48.1 µM)
MIC (clinical N. gonorrhoeae isolate 98, Sweden 2023): 4 µg/mL (≈ 12 µM)
MIC (clinical N. gonorrhoeae isolate 99, Sweden 2023): 4 µg/mL (≈ 12 µM)
MIC (clinical N. gonorrhoeae isolate 100, Sweden 2023): 16 µg/mL (≈ 48.1 µM)
Compound: CN[C@@H]1[C@H](O)[C@H](NC)[C@H]2O[C@@]3(O)C(=O)C[C@@H](C)O[C@H]3O[C@@H]2[C@H]1O [Spectinomycin]
AMR phenotype (susceptibility category, EUCAST) (WHO F): S
AMR phenotype (susceptibility category, EUCAST) (WHO H): S
AMR phenotype (susceptibility category, EUCAST) (WHO K): S
AMR phenotype (susceptibility category, EUCAST) (WHO L): S
AMR phenotype (susceptibility category, EUCAST) (WHO M): S
AMR phenotype (susceptibility category, EUCAST) (WHO O): R
AMR phenotype (susceptibility category, EUCAST) (WHO P): S
AMR phenotype (susceptibility category, EUCAST) (WHO Q): S
AMR phenotype (susceptibility category, EUCAST) (WHO R): S
AMR phenotype (susceptibility category, EUCAST) (WHO S2): S
AMR phenotype (susceptibility category, EUCAST) (WHO U): S
AMR phenotype (susceptibility category, EUCAST) (WHO V): S
AMR phenotype (susceptibility category, EUCAST) (WHO X): S
AMR phenotype (susceptibility category, EUCAST) (WHO Y): S
AMR phenotype (susceptibility category, EUCAST) (WHO Z): S

From paper PMC12446476 (Nature Communications, 2025)
